Data as given in patent US8946291B2, “Compositions and methods for treating pigmentary conditions and melanoma” (The United States of America, as represented by the …, priority 2008, dated 2015).

Experiments:
A375 cells = assay: Proliferation assay (crystal violet) in A375 melanoma cells; format: cell-based, human
Protocol: B16/F10 melanoma cells, SKMel 28 and A375 cells were obtained from the ATCC (Manassas, Va., USA). Mel Juso cells are a generous gift from Dr. Hornyak at the National Cancer Institute. A375, SK Mel 28 and B16 cells were grown at 37° C. under 5% CO2 in DMEM supplemented with 7% Fetal Bovine Serum (FBS) and penicillin (100 U/ml) and streptomycin (50 ug/ml). Mel Juso cells were grown at 37° C. under 5% CO2 in RPMI medium supplemented with 10% FBS and penicillin (100 U/ml) and streptomycin (50 ug/ml). Retinoic acid (10^−7M) and Prostaglandin D2 (0.5 ug/ml) were purchased from Sigma-Aldrich (St-Louis, Mo., USA).
The cells were transfected with a pBabe vector to give them a resistance to puromycin. At the same time, they were transfected with SOX9 cDNA or empty vector as control. Depending on the experiment, cells were also transfected the day after with SiRNA p21 or SiRNA Mock. After 10 to 15 d, the clones were fixed and stained with crystal violet. Proliferation was measured according to the optical density of the color.

SOX9 [1] = conditions: by promoting phosphorylation and nuclear translocation, literature (13); cited from earlier work
melanoma cells = conditions: literature (14-17); cited from earlier work
PRAME = PRAME expression in melanoma cells (immunoprecipitation / immunoblotting); format: cell-based, human; conditions: A375 cells treated with PGD2 for 72 h
Protocol: (§1) SOX9 has been extensively studied in chondrocytes due to its key role for collagen II synthesis. […] First, S35 labeling was performed on A375 cells treated or not treated with PGD2 for 72 h. Proteins were then extracted and immunoprecipitated with SOX9 and PRAME antibodies (GAPDH was used as a control). SOX9 was increased after treatment with PGD2 whereas PRAME was decreased (FIG. 3B). […] A further proliferation assay with or without RA treatment, using PGD2 instead of the transfection with SOX9, was performed.
(§2) Cells were solubilized in M-PER® mammalian protein extraction reagent (Pierce Biotechnology, Rockford, Ill., USA) containing Protease Inhibitor cocktail (Roche, Mannheim, Germany). Protein concentrations of extracts were measured using the BCA protein assay kit (Pierce, Rockford, Ill., USA). Cell extracts (30 μg) were separated on SDS polyacrylamide gels (Invitrogen). After electrophoresis, proteins were transferred electrophoretically from the gels to Invitrolon PVDF transfer membranes (Invitrogen). […] Antigens were detected using ECL-plus Western Blotting Detection System (GE Healthcare). […]

SOX9 [2] = assay: SOX9 expression in A375 cells (S35 labeling and immunoprecipitation / immunoblotting); format: cell-based, human; conditions: A375 cells treated with PGD2 for 72 h
Protocol: as §1, §2

SOX9 [3] = assay: SOX9 protein expression in normal human melanocytes (metabolic labeling, immunoblotting, immunocytochemistry); format: cell-based; conditions: for SOX9 regulation in human melanocytes: statement in the discussion
Protocol: Cultures in 100 mm dishes were solubilized in […] mammalian protein extraction reagent (Pierce Biotechnology, Rockford, Ill., USA) and Protease Inhibitor cocktail (Roche, Mannheim, Germany). Protein concentrations of extracts were measured using the BCA protein assay kit (Pierce, Rockford, Ill., USA). Cell extracts (20 μg) were separated on 8-16% gradient SDS polyacrylamide gels (Invitrogen). After electrophoresis, proteins were transferred electrophoretically from the gels to Invitrolon PVDF transfer membranes (Invitrogen). The filters were incubated with antibodies to SOX9 (rabbit 1:500; Abeam, Cambridge, UK), SOX10 (goat 1:200; Santa Cruz, Santa Cruz, Calif., USA), DCT (1:2,000; (22)), Tyrosinase (rabbit 1:10,000; (22)), or GAPDH (rabbit 1:10,000, Santa Cruz) for 1 h at 23° C. to overnight at 4° C. (depending on the antibody) and were then incubated with horseradish peroxidase-linked anti-rabbit, anti-mouse or anti-goat whole antibodies (at 1:1,0000, GE Healthcare, Buckinghamshire, UK) at room temperature for 1 h. Antigens were detected using ECL-plus Western Blotting Detection System (GE Healthcare). Blots were quantitated using Scion Image Software (Scion Corp., Frederick, Md., USA). Each experiment was performed at least in triplicate.
Melanocyte cultures in two well Lab-Tek chamber slides (Nalge Nune International Corp., Naperville, Ill., USA) were processed for indirect fluorescence to detect the expression of proteins using primary antibodies to SOX9 (rabbit 1:50, Abcam), MITF-ab3 (mouse 1:100 dilution; NeoMarkers, Fremont, Calif., USA), DCT (rabbit 1:7,500; (22)) and Tyrosinase (rabbit 1:700; (22)). Bound antibodies were visualized with appropriate secondary antibodies, Alexa Fluor® 488 goat anti-rabbit IgG (H+L) (Molecular Probes, Inc., Eugene, Oreg., USA), Alexa Fluor® 594 mouse anti-rabbit IgG (H+L) (Molecular Probes), Alexa Fluor® 488 goat anti-mouse IgG (H+L) (Molecular Probes) or Alexa Fluor® 594 goat anti-mouse IgG (H+L) (Molecular Probes) at 37° C. for 30 min at 1:500 dilution with 5% goat serum. DAPI (Vector, Burlingame, Calif.; USA) was used as a counter-stain. The green fluorescence produced by Alexa 488®, red produced by Alexa 594®, and blue by DAPI was observed and captured using a Leica DMR B/D MLD fluorescence microscope (Leica, Wetzlar, Germany) and a Dage-MTI 3CCD 3-chip color video camera (Dage-MTI, Michigan City, Ind., USA).
Radioactive metabolic labeling and immunoprecipitation was performed as described previously (58). Where indicated, cells were irradiated with 21 mJ/cm^2 UVB and/or chemical agents were added from the “pulse” period to the “chase” period. Cell extracts were incubated with normal rabbit serum (Vector, Burlingame, Calif., USA) and were then incubated with protein G beads (GE Healthcare). The supernatants were incubated with SOX9 (Abcam) or GAPDH (Santa-Cruz) antibodies. The immune-complexes were separated by incubation with beads and were further washed with immunoprecipitate lysis buffer. The pellets were eluted, electrophoresed and visualized by autoradiography.

TYR promoter = assay: Luciferase assay of TYR promoter in HeLa cells; format: cell-based, human; conditions: forskolin (data not shown)
Protocol: (§3) B16 melanoma cells or HeLa cells were seeded in 24-well dishes and were transfected with 0.3 μg of the luciferase reporter plasmid and 0.05 μg of pCMVβGal (Promega, Madison, Wis., USA) to control the variability of transfection efficiency. In some experiments, SOX9 was over-expressed using 0.1 μg of the pcDNA3 encoding SOX9, or was silenced with SOX9 siRNA (100 nM). Empty pcDNA3 or siRNA scrambles were used as controls depending on the experiments. All transfections were made with Lipofectamine (Invitrogen) according to the instructions of the manufacturer. Thirty-six h later, cells were washed with a saline phosphate buffer and lysed with reporter lysis buffer (Promega). Soluble extracts were harvested and assayed for luciferase and β-galactosidase activities. All transfections were repeated at least 3 times using different plasmid preparations and gave similar results. The pMITF wild-type and mutants, pDCT, pTYR, and pCRE constructs used were described previously (26, 43, 59).

DCT promoter = assay: Luciferase assay of DCT promoter in HeLa cells; format: cell-based, human; conditions: forskolin (data not shown)
Protocol: as §3

SOX9 [4] = assay: SOX9 mRNA expression in normal human melanocytes by RT-PCR; format: cell-based; conditions: n-MP NHM, 4 h after ASP treatment
Source text: Total RNA was reverse-transcribed using SuperScript III (Invitrogen). PCR reactions consisted of 25 cycles for β-actin and 35 cycles for SOX9 using Taq DNA polymerase (Invitrogen). PCR products for β-actin and SOX9 were 838 bp, and 288 bp, respectively, and were electrophoresed in parallel with DNA molecular mass markers (Invitrogen). Oligonucleotide primers used for PCR were based on mRNA sequences as follows: human SOX9 sense primer 5′-[…]-3′ (SEQ ID NO:5); human SOX9 antisense primer 5′-[…]-3′ (SEQ ID NO:6), β-actin sense primer 5′-[…]-3′ (SEQ ID NO:7); β-actin antisense primer 5′-[…]-3′ (SEQ ID NO:8). Each experiment was repeated at least in triplicate independently.

[5] = test system: mouse melanocytes, melanoma cells, NHM; conditions: literature (38-40); cited from earlier work
[6] = NHM, 21 mJ/cm^2 UVB, pretreatment with H89

## CCCCC[C@H](O)/C=C/[C@H]1C(=O)C[C@H](O)[C@@H]1C/C=C\CCCC(=O)O [PGD2, prostaglandin D2]
A375 cells; PGD2 0.5 μg/μl alone
  proliferation of A375 cells: inhibited
SOX9 [1]
  SOX9 activity in chondrocytes: increase SOX9 activity
Melanoma cells
  proliferation of melanoma cells and other cancer cells: decrease the proliferation
PRAME
  PRAME expression: decreased
SOX9 [2]
  SOX9 expression: increased

## O=S(=O)(NCCNC/C=C/c1ccc(Br)cc1)c1cccc2cnccc12 [H89]
SOX9 [3]; [6]
  UVB-induced expression of SOX9: prevented the increased expression
  UVB-induced expression of SOX9 phosphorylated at serine 181: prevented the increased expression

## αMSH
SOX9 [3]
  SOX9 regulation in human melanocytes: up-regulated

## Δ2-PGJ2
Melanoma cells
  proliferation of melanoma cells and other cancer cells: decrease the proliferation

## CC1=C(/C=C/C(C)=C/C=C/C(C)=C/C(=O)O)C(C)(C)CCC1 [RA, retinoic acid]
A375 cells; RA 10^−7 M alone
  proliferation of A375 cells: no effect

## C=C[C@@]1(C)CC(=O)[C@]2(O)[C@@]3(C)[C@@H](O)CCC(C)(C)[C@@H]3[C@H](O)[C@H](OC(C)=O)[C@@]2(C)O1 [forskolin]
TYR promoter
  TYR promoter activity: no effect
DCT promoter
  DCT promoter activity: no effect

B1: ASP: recombinant mouse protein, antagonist of the melanocortin I receptor (MC1R) (protein, UniProt Q03288 23-131, looked up)
Agouti-signaling protein: HLALEETLGDDRSLRSNSSMNSLDFSSVSIVALNKKSKKISRKEAEKRKRSSKKKASMKKVARPPPPSPCVATRDSCKPPAPACCDPCASCQCRFFGSACTCRVLNPNC
SOX9 [4]
  expression level of SOX9 (RT-PCR): decreased
SOX9 [3]; n-MP NHM treated 48 h with ASP
  SOX9 expression (immunoblotting): significantly decreased
SOX9 [3]
  SOX9 regulation in human melanocytes: down-regulated
[5]
  melanin formation: inhibits melanin formation
